# Data from ChEMBL document CHEMBL5344477, “Discovery of benzoheterocyclic-substituted amide derivatives as apoptosis signal-regulating kinase 1 (ASK1) inhibitors” (RSC Med Chem, 2024).
# Test: Half life in Sprague-Dawley rat at 0.5 mg/kg, iv measured upto 24 hrs by LC-MS/MS analysis
# Type: ADME, organism-based
# Conditions: in vivo
row,SMILES,half-life [h]
1,CC(C)n1cnnc1-c1cccc(NC(=O)c2cc3c(cc2F)OC(C)(C)C(=O)N3C)n1,0.71

# Test: AUClast in Sprague-Dawley rat at 5 mg/kg, po measured upto 24 hrs by LC-MS/MS analysis
# Type: ADME, organism-based
# Set-up: dose 5 mg/kg, time < 24 hrs, route po
# Conditions: in vivo
row,SMILES,AUC(0-t) at 24 h [µg·h/mL]
1,CC(CO)n1cnnc1-c1cccc(NC(=O)c2cc3c(cc2F)OCC(=O)N3)n1 (configuration not stated),0.021
2,CN1C(=O)CCCc2cc(F)c(C(=O)Nc3cccc(-c4nncn4C4CC4)n3)cc21,7.53
3,CC(C)n1cnnc1-c1cccc(NC(=O)c2cc3c(cc2F)OCc2cncn2-3)c1,0.939

# Test: Cmax in Sprague-Dawley rat at 1 mg/kg, iv measured upto 24 hrs by LC-MS/MS analysis
# Type: ADME, organism-based
# Set-up: dose 1 mg/kg, time < 24 hrs, route iv
# Conditions: in vivo
row,SMILES,Cmax [µg/mL]
1,CC(CO)n1cnnc1-c1cccc(NC(=O)c2cc3c(cc2F)OCC(=O)N3)n1 (configuration not stated),0.514
2,CN1C(=O)CCCc2cc(F)c(C(=O)Nc3cccc(-c4nncn4C4CC4)n3)cc21,0.799
3,CC(C)n1cnnc1-c1cccc(NC(=O)c2cc3c(cc2F)OCc2cncn2-3)c1,0.235

# Test: AUClast in Sprague-Dawley rat at 1 mg/kg, iv measured upto 24 hrs by LC-MS/MS analysis
# Type: ADME, organism-based
# Set-up: dose 1 mg/kg, time < 24 hrs, route iv
# Conditions: in vivo
row,SMILES,AUC(0-t) at 24 h [µg·h/mL]
1,CC(CO)n1cnnc1-c1cccc(NC(=O)c2cc3c(cc2F)OCC(=O)N3)n1 (configuration not stated),0.229
2,CN1C(=O)CCCc2cc(F)c(C(=O)Nc3cccc(-c4nncn4C4CC4)n3)cc21,1.34
3,CC(C)n1cnnc1-c1cccc(NC(=O)c2cc3c(cc2F)OCc2cncn2-3)c1,0.329

# Test: Oral bioavailability in Sprague-Dawley rat at 5 mg/kg measured upto 24 hrs by LC-MS/MS analysis
# Type: ADME, organism-based
# Conditions: in vivo
row,SMILES,bioavailability [%]
1,CC(CO)n1cnnc1-c1cccc(NC(=O)c2cc3c(cc2F)OCC(=O)N3)n1 (configuration not stated),2.1
2,CN1C(=O)CCCc2cc(F)c(C(=O)Nc3cccc(-c4nncn4C4CC4)n3)cc21,121
3,CC(C)n1cnnc1-c1cccc(NC(=O)c2cc3c(cc2F)OCc2cncn2-3)c1,57.4

# Test: Metabolic stability in human liver microsomes assessed as half life at 1 uM measured upto 90 mins by LC-MS/MS analysis
# Type: ADME, Microsome
# Conditions: not given
row,SMILES,half-life at 1 µM [h]
1,CC(C)n1cnnc1-c1cccc(NC(=O)c2cc3c(cc2F)OC(C)(C)C(=O)N3C)n1,5.26
2,CC(CO)n1cnnc1-c1cccc(NC(=O)c2cc3c(cc2F)OCC(=O)N3)n1 (configuration not stated),2.96
3,CN1C(=O)CCCc2cc(F)c(C(=O)Nc3cccc(-c4nncn4C4CC4)n3)cc21,2.6
4,CC(C)n1cnnc1-c1cccc(NC(=O)c2cc3c(cc2F)OCc2cncn2-3)c1,0.458

# Test: Cmax in Sprague-Dawley rat at 2.5 mg/kg, po measured upto 24 hrs by LC-MS/MS analysis
# Type: ADME, organism-based
# Set-up: dose 2.5 mg/kg, time < 24 hrs, route po
# Conditions: in vivo
row,SMILES,Cmax [µg/mL]
1,CC(C)n1cnnc1-c1cccc(NC(=O)c2cc3c(cc2F)OC(C)(C)C(=O)N3C)n1,0.417

# Test: Half life in Sprague-Dawley rat at 5 mg/kg, po measured upto 24 hrs by LC-MS/MS analysis
# Type: ADME, organism-based
# Conditions: in vivo
row,SMILES,half-life [h]
1,CC(CO)n1cnnc1-c1cccc(NC(=O)c2cc3c(cc2F)OCC(=O)N3)n1 (configuration not stated),1.55
2,CN1C(=O)CCCc2cc(F)c(C(=O)Nc3cccc(-c4nncn4C4CC4)n3)cc21,1.97
3,CC(C)n1cnnc1-c1cccc(NC(=O)c2cc3c(cc2F)OCc2cncn2-3)c1,1.13

# Test: Metabolic stability in rat liver microsomes assessed as clearance at 1 uM measured upto 90 mins by LC-MS/MS analysis
# Type: ADME, Microsome
# Conditions: read-out: CLH
row,SMILES,CLint scaled at 1 µM [L/h/kg]
1,CC(C)n1cnnc1-c1cccc(NC(=O)c2cc3c(cc2F)OC(C)(C)C(=O)N3C)n1,1.64
2,CC(CO)n1cnnc1-c1cccc(NC(=O)c2cc3c(cc2F)OCC(=O)N3)n1 (configuration not stated),1.17
3,CN1C(=O)CCCc2cc(F)c(C(=O)Nc3cccc(-c4nncn4C4CC4)n3)cc21,0.792
4,CC(C)n1cnnc1-c1cccc(NC(=O)c2cc3c(cc2F)OCc2cncn2-3)c1,22.7

# Test: AUClast in Sprague-Dawley rat at 0.5 mg/kg, iv measured upto 24 hrs by LC-MS/MS analysis
# Type: ADME, organism-based
# Set-up: time < 24 hrs, dose 0.5 mg/kg, route iv
# Conditions: in vivo
row,SMILES,AUC(0-t) at 24 h [µg·h/mL]
1,CC(C)n1cnnc1-c1cccc(NC(=O)c2cc3c(cc2F)OC(C)(C)C(=O)N3C)n1,0.218

# Test: Apparent […] clearance in Sprague-Dawley rat at 1 mg/kg, iv measured upto 24 hrs by LC-MS/MS analysis
# Type: ADME, organism-based
# Conditions: in vivo
row,SMILES,CL/F [L/h/kg]
1,CC(CO)n1cnnc1-c1cccc(NC(=O)c2cc3c(cc2F)OCC(=O)N3)n1 (configuration not stated),4.35
2,CN1C(=O)CCCc2cc(F)c(C(=O)Nc3cccc(-c4nncn4C4CC4)n3)cc21,0.73
3,CC(C)n1cnnc1-c1cccc(NC(=O)c2cc3c(cc2F)OCc2cncn2-3)c1,3.02

# Test: Cmax in Sprague-Dawley rat at 5 mg/kg, po measured upto 24 hrs by LC-MS/MS analysis
# Type: ADME, organism-based
# Set-up: dose 5 mg/kg, time < 24 hrs, route po
# Conditions: in vivo
row,SMILES,Cmax [µg/mL]
1,CC(CO)n1cnnc1-c1cccc(NC(=O)c2cc3c(cc2F)OCC(=O)N3)n1 (configuration not stated),0.027
2,CN1C(=O)CCCc2cc(F)c(C(=O)Nc3cccc(-c4nncn4C4CC4)n3)cc21,1.85
3,CC(C)n1cnnc1-c1cccc(NC(=O)c2cc3c(cc2F)OCc2cncn2-3)c1,0.445

# Test: Volume of distribution at steady state in Sprague-Dawley rat at 0.5 mg/kg, iv measured upto 24 hrs by LC-MS/MS analysis
# Type: ADME, organism-based
# Conditions: in vivo, read-out: Vdss
row,SMILES,Vd [L/kg]
1,CC(C)n1cnnc1-c1cccc(NC(=O)c2cc3c(cc2F)OC(C)(C)C(=O)N3C)n1,1.88

# Test: Cmax in Sprague-Dawley rat at 0.5 mg/kg, iv measured upto 24 hrs by LC-MS/MS analysis
# Type: ADME, organism-based
# Set-up: time < 24 hrs, dose 0.5 mg/kg, route iv
# Conditions: in vivo
row,SMILES,Cmax [µg/mL]
1,CC(C)n1cnnc1-c1cccc(NC(=O)c2cc3c(cc2F)OC(C)(C)C(=O)N3C)n1,0.239

# Test: Metabolic stability in human liver microsomes assessed as clearance at 1 uM measured upto 90 mins by LC-MS/MS analysis
# Type: ADME, Microsome
# Conditions: read-out: CLH
row,SMILES,CLint scaled at 1 µM [L/h/kg]
1,CC(C)n1cnnc1-c1cccc(NC(=O)c2cc3c(cc2F)OC(C)(C)C(=O)N3C)n1,0.33
2,CC(CO)n1cnnc1-c1cccc(NC(=O)c2cc3c(cc2F)OCC(=O)N3)n1 (configuration not stated),0.588
3,CN1C(=O)CCCc2cc(F)c(C(=O)Nc3cccc(-c4nncn4C4CC4)n3)cc21,0.666
4,CC(C)n1cnnc1-c1cccc(NC(=O)c2cc3c(cc2F)OCc2cncn2-3)c1,3.8

# Test: Apparent […] clearance in Sprague-Dawley rat at 0.5 mg/kg, iv measured upto 24 hrs by LC-MS/MS analysis
# Type: ADME, organism-based
# Conditions: in vivo
row,SMILES,CL/F [L/h/kg]
1,CC(C)n1cnnc1-c1cccc(NC(=O)c2cc3c(cc2F)OC(C)(C)C(=O)N3C)n1,2.28

# Test: Oral bioavailability in Sprague-Dawley rat at 2.5 mg/kg measured upto 24 hrs by LC-MS/MS analysis
# Type: ADME, organism-based
# Conditions: in vivo
row,SMILES,bioavailability [%]
1,CC(C)n1cnnc1-c1cccc(NC(=O)c2cc3c(cc2F)OC(C)(C)C(=O)N3C)n1,72.2

# Test: Metabolic stability in rat liver microsomes assessed as half life at 1 uM measured upto 90 mins by LC-MS/MS analysis
# Type: ADME, Microsome
# Conditions: not given
row,SMILES,half-life at 1 µM [h]
1,CC(C)n1cnnc1-c1cccc(NC(=O)c2cc3c(cc2F)OC(C)(C)C(=O)N3C)n1,1.52
2,CC(CO)n1cnnc1-c1cccc(NC(=O)c2cc3c(cc2F)OCC(=O)N3)n1 (configuration not stated),2.12
3,CN1C(=O)CCCc2cc(F)c(C(=O)Nc3cccc(-c4nncn4C4CC4)n3)cc21,3.15
4,CC(C)n1cnnc1-c1cccc(NC(=O)c2cc3c(cc2F)OCc2cncn2-3)c1,0.11

# Test: AUClast in Sprague-Dawley rat at 2.5 mg/kg, po measured upto 24 hrs by LC-MS/MS analysis
# Type: ADME, organism-based
# Set-up: dose 2.5 mg/kg, time < 24 hrs, route po
# Conditions: in vivo
row,SMILES,AUC(0-t) at 24 h [µg·h/mL]
1,CC(C)n1cnnc1-c1cccc(NC(=O)c2cc3c(cc2F)OC(C)(C)C(=O)N3C)n1,0.767

# Test: Volume of distribution at steady state in Sprague-Dawley rat at 1 mg/kg, iv measured upto 24 hrs by LC-MS/MS analysis
# Type: ADME, organism-based
# Conditions: in vivo, read-out: Vdss
row,SMILES,Vd [L/kg]
1,CC(CO)n1cnnc1-c1cccc(NC(=O)c2cc3c(cc2F)OCC(=O)N3)n1 (configuration not stated),1.25
2,CN1C(=O)CCCc2cc(F)c(C(=O)Nc3cccc(-c4nncn4C4CC4)n3)cc21,1.14
3,CC(C)n1cnnc1-c1cccc(NC(=O)c2cc3c(cc2F)OCc2cncn2-3)c1,2.61

# Test: Half life in Sprague-Dawley rat at 1 mg/kg, iv measured upto 24 hrs by LC-MS/MS analysis
# Type: ADME, organism-based
# Conditions: in vivo
row,SMILES,half-life [h]
1,CC(CO)n1cnnc1-c1cccc(NC(=O)c2cc3c(cc2F)OCC(=O)N3)n1 (configuration not stated),0.22
2,CN1C(=O)CCCc2cc(F)c(C(=O)Nc3cccc(-c4nncn4C4CC4)n3)cc21,1.22
3,CC(C)n1cnnc1-c1cccc(NC(=O)c2cc3c(cc2F)OCc2cncn2-3)c1,0.63

# Test: Half life in Sprague-Dawley rat at 2.5 mg/kg, po measured upto 24 hrs by LC-MS/MS analysis
# Type: ADME, organism-based
# Conditions: in vivo
row,SMILES,half-life [h]
1,CC(C)n1cnnc1-c1cccc(NC(=O)c2cc3c(cc2F)OC(C)(C)C(=O)N3C)n1,1.3
